{"source": "patent US20130338130A1", "about": "(priority 2009, published 2013)", "tested_on": "ATCC strain 43300 Staphylococcus aureus", "details": "for survival (cfu/ml): 12 μg/ml oxacillin (re-added every 24 hours) + MSM (% in label), three columns = triplicate platings, inoculum 3.3×10^5/ml", "note": "Several values for one entry are separate records, joined by “and”; a condition that tells them apart may be missing. Equal entries are not always repeated. Where two headings read alike, the source gives them in different places.", "description": "Additional antibiotic was added every 24 hours. The growth periods tested were 24 (see FIG. 4), 48, 72, 96 and 120 hours.\nUSP<51> Antimicrobial Effectiveness protocol was used as the template experimental paradigm. […] All concentrations were plated out to the 10^−7 dilutions to ascertain cfu/ml. […] Additional antibiotic was added at the initial concentration every 24 hours.\nATCC strain 43300 Staphylococcus aureus was streaked out for isolations. An isolated colony was chosen, streaked again and incubated. Isolate was chosen and then diluted to a McFarland standard of one. The estimated value was then taken to inoculate tubes containing growth media and 12, 30 or 60 μg/ml oxacillin with approximately 10^5 cfu/ml. These tubes were incubated and plated for counting cfu. A clone having no observed log reduction in cfu was selected for the rest of the experiment.\nMaterial was calculated on a 10 ml volume. Sterile oxacillin was added to each experimental condition to a final concentration of 12, 30 or 60 μg/ml antibiotic.\nAll tubes were then inoculated with a dilution of the selected ATCC strain 43300 Staphylococcus aureus clone giving a final level of colony forming units of 3.3×10^5/ml (log=5.52). The tubes were incubated at 25° C. and mixed periodically. Antibiotic was re-inoculated every 24 hours at the initial concentration to maintain pressure on the organism. Plating was done at 24, 48, 72, and 120 hours. Each condition was plated by diluting 1 ml of growth material into 9 ml of MLB diluent broth. […] This mixture was serial diluted down to 10^−7 with 1 ml placed in triplicate in a sterile petri dish at each dilution point. 20 mls of TSA was added to each dilution, swirled and allowed to solidify. All dilutions were placed in a 35° C. incubator for 24 to 72 hours. Bacterial colonies on each plate were counted and the average taken then changed into log format. Any cfu/ml observed greater than 3.3×10^5 (log=5.5) were recorded as >3.3×10^5.\nThe tube was then taken out of the experiment and tested for ATCC strain 43300 Staphylococcus growth. The tube was spun down at 5000 rpm for 10 minutes. The supernatant was then decanted into 90 mls of Mueller-Hinton broth with 6 μg/ml oxacillin. This is for enrichment and the recovery of any MRSA cells that may be present whether healthy or stressed. The pellet had 10 mls Mueller-Hinton broth with 6 μg/ml oxacillin added to it to recover any cells that may be present. Both vessels were incubated at 35° C. for 48 hours followed by plating every 24 hours. Each vessel was plated at 10 dilutions to obtain a 1 cfu detection limit."}
{"smiles": "CS(C)(=O)=O", "note": "[MSM, Methylsulfonylmethane]", "values": [{"measurement": "survival (cfu/ml)", "setting": "24 hours, listed as 15% MSM", "result": "1.35 × 10^4 cfu/ml and 1.30 × 10^4 cfu/ml"}, {"measurement": "survival (cfu/ml)", "setting": "24 hours, listed as 16% MSM", "result": "7.6 × 10^3 cfu/ml and 7.4 × 10^3 cfu/ml"}, {"measurement": "survival, Average Log", "setting": "12 μg/ml oxacillin + MSM (% in label), 24 hours, listed as 5% MSM", "result": 3.91, "unit": "Log"}, {"measurement": "survival, Average Log", "setting": "12 μg/ml oxacillin + MSM (% in label), 24 hours, listed as 6% MSM", "result": 3.92, "unit": "Log"}, {"measurement": "survival, Average Log", "setting": "12 μg/ml oxacillin + MSM (% in label), 24 hours, listed as 7% MSM", "result": 3.91, "unit": "Log"}, {"measurement": "survival, Average Log", "setting": "12 μg/ml oxacillin + MSM (% in label), 24 hours, listed as 8% MSM", "result": 3.82, "unit": "Log"}, {"measurement": "survival, Average Log", "setting": "12 μg/ml oxacillin + MSM (% in label), 24 hours, listed as 9% MSM", "result": 3.72, "unit": "Log"}, {"measurement": "survival, Average Log", "setting": "12 μg/ml oxacillin + MSM (% in label), 24 hours, listed as 10% MSM", "result": 3.76, "unit": "Log"}, {"measurement": "survival, Average Log", "setting": "12 μg/ml oxacillin + MSM (% in label), 24 hours, listed as 11% MSM", "result": 3.91, "unit": "Log"}, {"measurement": "survival, Average Log", "setting": "12 μg/ml oxacillin + MSM (% in label), 24 hours, listed as 12% MSM", "result": 3.85, "unit": "Log"}, {"measurement": "survival, Average Log", "setting": "12 μg/ml oxacillin + MSM (% in label), 24 hours, listed as 13% MSM", "result": 3.95, "unit": "Log"}, {"measurement": "survival, Average Log", "setting": "12 μg/ml oxacillin + MSM (% in label), 24 hours, listed as 14% MSM", "result": 4.00, "unit": "Log"}, {"measurement": "survival, Average Log", "setting": "12 μg/ml oxacillin + MSM (% in label), 24 hours, listed as 15% MSM", "result": 4.11, "unit": "Log"}, {"measurement": "survival, Average Log", "setting": "12 μg/ml oxacillin + MSM (% in label), 24 hours, listed as 16% MSM", "result": 3.88, "unit": "Log"}, {"measurement": "survival, Average Log", "setting": "12 μg/ml oxacillin + MSM (% in label), 48 hours, listed as 5% MSM", "result": 3.6, "unit": "Log"}, {"measurement": "survival, Average Log", "setting": "12 μg/ml oxacillin + MSM (% in label), 48 hours, listed as 6% MSM", "result": 3.2, "unit": "Log"}, {"measurement": "survival, Average Log", "setting": "12 μg/ml oxacillin + MSM (% in label), 48 hours, listed as 7% MSM", "result": 3.9, "unit": "Log"}, {"measurement": "survival, Average Log", "setting": "12 μg/ml oxacillin + MSM (% in label), 48 hours, listed as 8% MSM", "result": 3.7, "unit": "Log"}, {"measurement": "survival, Average Log", "setting": "12 μg/ml oxacillin + MSM (% in label), 48 hours, listed as 9% MSM", "result": 3.4, "unit": "Log"}, {"measurement": "survival, Average Log", "setting": "12 μg/ml oxacillin + MSM (% in label), 48 hours, listed as 10% MSM", "result": 2.7, "unit": "Log"}, {"measurement": "survival, Average Log", "setting": "12 μg/ml oxacillin + MSM (% in label), 48 hours, listed as 11% MSM", "result": 2.8, "unit": "Log"}, {"measurement": "survival, Average Log", "setting": "12 μg/ml oxacillin + MSM (% in label), 48 hours, listed as 12% MSM", "result": 2.8, "unit": "Log"}, {"measurement": "survival, Average Log", "setting": "12 μg/ml oxacillin + MSM (% in label), 48 hours, listed as 13% MSM", "result": 2.8, "unit": "Log"}, {"measurement": "survival, Average Log", "setting": "12 μg/ml oxacillin + MSM (% in label), 48 hours, listed as 14% MSM", "result": 1.0, "unit": "Log"}, {"measurement": "survival, Average Log", "setting": "12 μg/ml oxacillin + MSM (% in label), 48 hours, listed as 15% MSM", "result": 3.7, "unit": "Log"}, {"measurement": "survival, Average Log", "setting": "12 μg/ml oxacillin + MSM (% in label), 48 hours, listed as 16% MSM", "result": 3.7, "unit": "Log"}, {"measurement": "survival, Average Log", "setting": "12 μg/ml oxacillin + MSM (% in label), 72 hours, listed as 5% MSM", "result": 5.5, "unit": "Log"}, {"measurement": "survival, Average Log", "setting": "12 μg/ml oxacillin + MSM (% in label), 72 hours, listed as 6% MSM", "result": 5.5, "unit": "Log"}, {"measurement": "survival, Average Log", "setting": "12 μg/ml oxacillin + MSM (% in label), 72 hours, listed as 7% MSM", "result": 5.5, "unit": "Log"}, {"measurement": "survival, Average Log", "setting": "12 μg/ml oxacillin + MSM (% in label), 72 hours, listed as 8% MSM", "result": 5.5, "unit": "Log"}, {"measurement": "survival, Average Log", "setting": "12 μg/ml oxacillin + MSM (% in label), 72 hours, listed as 9% MSM", "result": 4.5, "unit": "Log"}, {"measurement": "survival, Average Log", "setting": "12 μg/ml oxacillin + MSM (% in label), 72 hours, listed as 10% MSM", "result": 4.0, "unit": "Log"}, {"measurement": "survival, Average Log", "setting": "12 μg/ml oxacillin + MSM (% in label), 72 hours, listed as 11% MSM", "result": 3.6, "unit": "Log"}, {"measurement": "survival, Average Log", "setting": "12 μg/ml oxacillin + MSM (% in label), 72 hours, listed as 12% MSM", "result": 3.1, "unit": "Log"}, {"measurement": "survival, Average Log", "setting": "12 μg/ml oxacillin + MSM (% in label), 72 hours, listed as 13% MSM", "result": 2.7, "unit": "Log"}, {"measurement": "survival, Average Log", "setting": "12 μg/ml oxacillin + MSM (% in label), 72 hours, listed as 14% MSM", "result": 2.0, "unit": "Log"}, {"measurement": "survival, Average Log", "setting": "12 μg/ml oxacillin + MSM (% in label), 72 hours, listed as 15% MSM", "result": 2.3, "unit": "Log"}, {"measurement": "log reduction in the number of cfu/ml", "setting": "12 μg/ml oxacillin, 48 hours", "result": 4.5, "unit": "log"}, {"measurement": "log reduction in the number of cfu/ml", "setting": "12 μg/ml oxacillin, 72 hours", "result": 4.5, "unit": "log"}, {"measurement": "log reduction in the number of cfu/ml", "setting": "12 μg/ml oxacillin, MSM concentrations of 12%-16%, 72 hours", "result": 1, "unit": "log"}, {"measurement": "average log reduction in the number of cfu/ml", "setting": "12 μg/ml oxacillin, all MSM concentrations, 24 hours", "result": 1.5, "unit": "logs"}, {"measurement": "average Log reduction in the number of cfu/ml", "setting": "30 μg/ml and 60 μg/ml oxacillin, lower end of MSM concentrations, 24 hours", "result": 3, "unit": "log"}, {"measurement": "survival, Average Log", "setting": "30 μg/ml oxacillin + MSM (% in label), 24 hours, listed as 5% MSM", "result": 2.51, "unit": "Log"}, {"measurement": "survival, Average Log", "setting": "30 μg/ml oxacillin + MSM (% in label), 24 hours, listed as 6% MSM", "result": 2.46, "unit": "Log"}, {"measurement": "survival, Average Log", "setting": "30 μg/ml oxacillin + MSM (% in label), 24 hours, listed as 7% MSM", "result": 2.98, "unit": "Log"}, {"measurement": "survival, Average Log", "setting": "30 μg/ml oxacillin + MSM (% in label), 24 hours, listed as 8% MSM", "result": 3.07, "unit": "Log"}, {"measurement": "survival, Average Log", "setting": "30 μg/ml oxacillin + MSM (% in label), 24 hours, listed as 9% MSM", "result": 3.01, "unit": "Log"}, {"measurement": "survival, Average Log", "setting": "30 μg/ml oxacillin + MSM (% in label), 24 hours, listed as 10% MSM", "result": 3.32, "unit": "Log"}, {"measurement": "survival, Average Log", "setting": "30 μg/ml oxacillin + MSM (% in label), 24 hours, listed as 11% MSM", "result": 3.57, "unit": "Log"}, {"measurement": "survival, Average Log", "setting": "30 μg/ml oxacillin + MSM (% in label), 24 hours, listed as 12% MSM", "result": 3.59, "unit": "Log"}, {"measurement": "survival, Average Log", "setting": "30 μg/ml oxacillin + MSM (% in label), 24 hours, listed as 13% MSM", "result": 3.62, "unit": "Log"}, {"measurement": "survival, Average Log", "setting": "30 μg/ml oxacillin + MSM (% in label), 24 hours, listed as 14% MSM", "result": 3.78, "unit": "Log"}, {"measurement": "survival, Average Log", "setting": "30 μg/ml oxacillin + MSM (% in label), 24 hours, listed as 15% MSM", "result": 3.94, "unit": "Log"}, {"measurement": "survival, Average Log", "setting": "30 μg/ml oxacillin + MSM (% in label), 24 hours, listed as 16% MSM", "result": 3.91, "unit": "Log"}, {"measurement": "survival, Average Log", "setting": "30 μg/ml oxacillin + MSM (% in label), 48 hours, listed as 5% MSM", "result": 3.8, "unit": "Log"}, {"measurement": "survival, Average Log", "setting": "30 μg/ml oxacillin + MSM (% in label), 48 hours, listed as 6% MSM", "result": 3.7, "unit": "Log"}, {"measurement": "survival, Average Log", "setting": "30 μg/ml oxacillin + MSM (% in label), 48 hours, listed as 7% MSM", "result": 2.3, "unit": "Log"}]}
